# Reference: patent US20230303581A1, “ORALLY BIOAVAILABLE, BRAIN-PENETRANT COMPOUND WITH SELECTIVITY FOR THE CANNABINOID TYPE 2 RECEPTOR WITH POTENTIAL USE TOWARDS VISCERAL PAIN MANAGEMENT AND NEURODEGENERATIVE DISORDERS” (University of Mississippi, priority 2022, published 2023)
# Several values for one entry are separate records, joined by “and”; a condition that tells them apart may be missing. Identical values can stand only once. Like-named read-outs stand apart in the source and are kept apart here.
# What was measured:
# [1] = Stability studies under physiological pH; assay type: physicochemical; settings: 4k compared to 4q; data not reported
# [2] = PK evaluation in CD-1 mice (plasma and tissue concentrations); assay type: in vivo
# Procedure: The primary stock solutions of 4k and phenacetin (internal standard, IS) were prepared in methanol at a concentration of 1.0 mg/mL. Working solutions of calibration standards and quality control (QC) samples were prepared by dilution with methanol and stored at −20° C. A working stock of the IS solution (20 ng/mL) was prepared in methanol and stored at −20° C.
# Chromatography was performed on an Acquity™ UPLC system (Waters Corp, Milford, MA, USA) with an autosampler temperature at 10° C. Waters Acquity UPLC® HSS C18 column (3.0×50 mm, 1.8 μm particle size) was used for chromatographic separation with linear gradient elution consisting of (A) 90% acetonitrile and (B) 10% 0.2% formic acid in Milli-Q water as mobile phases. The flow rate was set at 0.30 mL/min, and the injection volume was 2 μL.
# An Acquity Tandem Quadrupole Mass Detector (Xevo TQ-S; Waters Corp, Milford, MA, USA) in positive electrospray ionization mode was used for mass spectrometric detection. For collision-induced dissociation, argon was used as collision gas. The cone voltage and collision energy were set at 60 V and 34 V for 4k and 46 V and 26 V for the IS, respectively. Quantification was performed using the monitoring of multiple reaction monitoring (MRM) of following transitions: m/z 409.0/220.9 for 4k and m/z 180.0/92.7 for IS. Retention times of 4k and IS were 2.85 and 1.81 min, respectively.
# A simple protein precipitation method was followed for extraction of 4k from mice plasma. To an aliquot of 50 μL of plasma or tissue (brain, liver, or kidney) samples, IS solution (5 μL of 20 ng/mL) was added and mixed for 15 s on a cyclomixer (Thermo Scientific, Indianapolis, IN, USA). After precipitation with 200 μL of acetonitrile, the mixture was vortexed for 2 min, followed by centrifugation for 10 min at 14,000 rpm on an accuSpin Micro 17R (Fisher Scientific, Suwanee, GA, USA) at 5° C. An aliquot of ˜150 μL of clear supernatant was transferred into vials and 2 μL was injected onto LC-MS/MS system for analysis.
# Male CD-1 mice (N=48) were obtained from Envigo (St. Louis, MO, USA) and maintained on a 12:12 h reversed dark/light cycle (lights off at 07:00 h) with ad libitum access to food and water. Following a ˜4 h fast, animals were randomly assigned to one of two groups. Group I and II animals (n=24/group, weight range 25-30 g) received compound 4k (5 mg/kg) orally (in the form of a solution, prepared using 10% absolute alcohol, 10% cremophor, and 80% Milli-Q water) or intravenously (i.v., using solution formulation comprising 10% absolute alcohol, 10% cremophor, and 80% normal saline), respectively. At 0.5, 1, 2, 4, 8, and 24 h post administration, animals were euthanized, blood was collected in K2. EDTA-containing polypropylene tubes and, tissues were collected (brain, liver, and kidney). Plasma was harvested by centrifuging the blood using Eppendorf 5430R Centrifuge (Germany) at 5000 rpm for 5 min and stored frozen at −80° C. until analysis.
# Brain, liver, and kidney tissues were homogenized in separate 15 mL round-bottom screw-capped vials in phosphate buffered saline (5 volumes of each tissue mass) with a homogenizer (Polytron®) and stored at −80° C. until analysis. Plasma or tissue homogenates (50 μL) were spiked with IS and processed as mentioned in sample preparation section.
# Plasma and tissue concentration and time data of compound 4k were analyzed by a non-compartmental method using WinNonlin Version 5.3 (Pharsight Corporation, Mountain View, CA, USA).
# [3] = male, CD-1, mouse, intravenous 5 mg/kg, brain
# [4] = male, CD-1, mouse, intravenous 5 mg/kg, kidney
# [5] = male, CD-1, mouse, intravenous 5 mg/kg, liver
# [6] = male, CD-1, mouse, intravenous 5 mg/kg, plasma
# [7] = male, CD-1, mouse, oral 5 mg/kg, brain
# [8] = male, CD-1, mouse, oral 5 mg/kg, kidney
# [9] = male, CD-1, mouse, oral 5 mg/kg, liver
# [10] = male, CD-1, mouse, oral 5 mg/kg, plasma
smiles,measurement,setting,value
O=C1c2ccc(Cl)cc2N/C(=N/N=C/c2cc3ccccc3s2)[C@@H]2CCCN12 [Compound 4k],tolerance under physiological pH,[1],better tolerance
same,AUC0-∞,"[2]; intravenous 5 mg/kg, brain",5685 ng·h/g
same,AUC0-∞,"[2]; intravenous 5 mg/kg, kidney",13272 ng·h/g
same,AUC0-∞,"[2]; intravenous 5 mg/kg, liver",19991 ng·h/g
same,clearance as share of hepatic blood flow in mice,"[2]; intravenous 5 mg/kg, plasma",26%
same,clearance,[2]; [3],15.7 ± 2.31 mL/min/kg
same,half-life,[2]; [3],6.54 ± 1.38 h
same,clearance,[2]; [4],6.38 ± 0.49 mL/min/kg
same,half-life,[2]; [4],10.2 ± 0.49 h
same,clearance,[2]; [5],4.28 ± 0.38 mL/min/kg
same,half-life,[2]; [5],9.26 ± 0.67 h
same,Vd,[2]; [6],14.3 ± 3.11 L/kg
same,clearance,[2]; [6],23.5 ± 5.35 mL/min/kg
same,half-life,[2]; [6],6.91 ± 0.15 h
same,Cmax,"[2]; male, CD-1, mouse, intravenous 5 mg/kg, plasma, read-out: Cmax Or C0",4340 ng/mL
same,Tmax,[2]; [7],1.25 ± 0.44 h
same,half-life,[2]; [7],22.9 ± 3.73 h
same,Cmax,"[2]; male, CD-1, mouse, oral 5 mg/kg, brain, read-out: Cmax",602 ± 44.8 ng/g
same,bioavailability,"[2]; male, CD-1, mouse, oral 5 mg/kg, brain, read-out: F (apparent oral bioavailability)",43%
same,Tmax,[2]; [8],0.75 ± 0.15 h
same,half-life,[2]; [8],16.7 ± 1.61 h
same,Cmax,"[2]; male, CD-1, mouse, oral 5 mg/kg, kidney, read-out: Cmax",795 ± 22.6 ng/g
same,bioavailability,"[2]; male, CD-1, mouse, oral 5 mg/kg, kidney, read-out: F (apparent oral bioavailability)",37 ± 3.78%
same,Tmax,[2]; [9],0.75 ± 0.15 h
same,half-life,[2]; [9],13 ± 0.97 h
same,Cmax,"[2]; male, CD-1, mouse, oral 5 mg/kg, liver, read-out: Cmax",1890 ± 282 ng/g
same,bioavailability,"[2]; male, CD-1, mouse, oral 5 mg/kg, liver, read-out: F (apparent oral bioavailability)",32 ± 2.86%
same,AUC(0-inf),[2]; [10],739 ± 6.75 ng·h/mL
same,Tmax,[2]; [10],0.88 ± 0.13 h
same,half-life,[2]; [10],16.4 ± 1.66 h
same,Cmax,"[2]; male, CD-1, mouse, oral 5 mg/kg, plasma, read-out: Cmax",198 ± 11.5 ng/mL
same,bioavailability,"[2]; male, CD-1, mouse, oral 5 mg/kg, plasma, read-out: F (bioavailability)",18 ± 2.43%
same,AUC0-∞,"[2]; oral 5 mg/kg, kidney",5223 ± 44.75 ng·h/g and 5223 ng·h/g
same,AUC0-∞,"[2]; oral 5 mg/kg, liver",6423 ± 571 ng·h/g and 6423 ng·h/g
